Target: T1, porcine ficolin 2 (FCN2) (Sus scrofa, UniProt Q29041)
T1 sequence (Q29041 27-323): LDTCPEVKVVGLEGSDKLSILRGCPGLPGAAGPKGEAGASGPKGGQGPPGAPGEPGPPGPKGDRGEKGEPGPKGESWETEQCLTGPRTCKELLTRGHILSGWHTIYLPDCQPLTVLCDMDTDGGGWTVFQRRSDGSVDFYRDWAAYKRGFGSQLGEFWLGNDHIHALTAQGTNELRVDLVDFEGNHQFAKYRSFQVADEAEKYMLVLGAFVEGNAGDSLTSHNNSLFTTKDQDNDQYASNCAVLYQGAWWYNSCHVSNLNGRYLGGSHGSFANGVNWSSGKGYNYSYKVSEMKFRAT
Format: biochemical
Settings: 60% (v/v) pig serum, 37 °C, 20 min; PMOXA-coated NPs; S2 site, competitive

`CC(=O)N[C@H]1C(O)O[C@H](CO)[C@@H](O)[C@@H]1O` (stereo partly shown) [GlcNAc] showed an IC50 of 67 mM.
